# Test results reported in publication PMC11200976, “Pitavastatin Calcium Confers Fungicidal Properties to Fluconazole by Inhibiting Ubiquinone Biosynthesis and Generating Reactive Oxygen Species” (Antioxidants, 2024).
# Counter-ions that a name gives are not always drawn.
# Test system: C. albicans
# Assay: Broth microdilution assay of synergistic lethality with 4 μg/mL FLC (recovery on drug-free YPD)
# Type: cell-based, Candida albicans
# Details: concentration of the compound that is synergistically lethal with 4 μg/mL FLC; C. albicans; recovery on drug-free YPD
row,Structure (SMILES),Synergistic lethal concentrations [µM]
1,CC(C(=O)[O-])c1cccc(Oc2ccccc2)c1.CC(C(=O)[O-])c1cccc(Oc2ccccc2)c1.O.O.[Ca+2] (stereo not drawn) [Fenoprofen (Calcium hydrate)],100
2,O=C(O)c1ccccc1Nc1cccc(C(F)(F)F)c1 [Flufenamic acid],100
3,Cl.Cl.Fc1ccc(C(c2ccc(F)cc2)N2CCN(C/C=C/c3ccccc3)CC2)cc1 [Flunarizine (dihydrochloride)],50
4,CC(C)n1c(/C=C/C(O)CC(O)CC(=O)[O-])c(-c2ccc(F)cc2)c2ccccc21.[Na+] (stereo not drawn) [Fluvastatin (sodium)],6.25
5,COCCCC/C(=N\OCCN)c1ccc(C(F)(F)F)cc1.O=C(O)/C=C\C(=O)O [Fluvoxamine (maleate)],100
6,O=C(CCCN1CCC(O)(c2ccc(Cl)cc2)CC1)c1ccc(F)cc1 [Haloperidol],100
7,CCCCCCc1ccc(O)cc1O [Hexylresorcinol],12.5
8,Cl.Cl.OCCOCCN1CCN(C(c2ccccc2)c2ccc(Cl)cc2)CC1 (stereo not drawn) [Hydroxyzine (dihydrochloride)],100
9,O=C(O)c1cc2ccccc2c(Cc2c(O)c(C(=O)O)cc3ccccc23)c1O.OCCOCCN1CCN(C(c2ccccc2)c2ccc(Cl)cc2)CC1 [Hydroxyzine (pamoate)],100
10,COc1ccc2c(c1)c(CC(=O)O)c(C)n2C(=O)c1ccc(Cl)cc1 [Indomethacin],100
11,C/C=C(/C)C(=O)O[C@H]1C(C)=C[C@]23C(=O)[C@@H](C=C(CO)[C@@H](O)[C@]12O)[C@H]1[C@@H](C[C@H]3C)C1(C)C [Ingenol Mebutate],100
12,COC(=O)N[C@H](C(=O)N1CC2(CC2)C[C@H]1c1nc(-c2ccc3c(c2)C(F)(F)c2cc(-c4ccc5[nH]c([C@@H]6[C@H]7CC[C@H](C7)N6C(=O)[C@@H](NC(=O)OC)C(C)C)nc5c4)ccc2-3)c[nH]1)C(C)C [Ledipasvir],100
13,CCOC(=O)C1=C(COCCN)NC(C)=C(C(=O)OC)[C@@H]1c1ccccc1Cl.O=S(=O)(O)c1ccccc1 [Levamlodipine besylate],100
14,O=C(NC1CCN(CCCCC2(C(=O)NCC(F)(F)F)c3ccccc3-c3ccccc32)CC1)c1ccccc1-c1ccc(C(F)(F)F)cc1 [Lomitapide],6.25
15,CC[C@H](C)C(=O)O[C@H]1C[C@@H](C)C=C2C=C[C@H](C)[C@H](CC[C@@H]3C[C@@H](O)CC(=O)O3)[C@H]21 [Lovastatin],100
16,CN1CCN(C2=Nc3ccccc3Oc3ccc(Cl)cc32)CC1 [Loxapine],100
17,C=CCc1ccc(O)c(-c2cc(CC=C)ccc2O)c1 [Magnolol],12.5
18,CNCCCC12CCC(c3ccccc31)c1ccccc12.Cl [Maprotiline (hydrochloride)],50
19,CN1CCc2c(c3ccccc3n2Cc2ccccc2)C1.CN1CCc2c(c3ccccc3n2Cc2ccccc2)C1.O=S(=O)(O)c1cccc2c(S(=O)(=O)O)cccc12 [Mebhydrolin (napadisylate)],100
20,CN1CCc2c(c3ccccc3n2Cc2ccccc2)C1 [Mebhydrolin],100
21,Cl.OC(c1cc(C(F)(F)F)nc2c(C(F)(F)F)cccc12)C1CCCCN1 (stereo not drawn) [Mefloquine (hydrochloride)],25

row,Structure (SMILES),Synergistic lethal concentrations [µM]
1,CN(C)CCC=C1c2ccccc2C(C)(C)c2ccccc21.Cl [Melitracen (hydrochloride)],50
2,CC1=CC(=O)c2ccccc2C1=O [Menadione],100
3,c1ccc2c(c1)Sc1ccccc1N2CC1CN2CCC1CC2 (stereo not drawn) [Mequitazine],25
4,CN1C[C@H](CNC(=O)OCc2ccccc2)C[C@@H]2c3cccc4c3c(cn4C)C[C@H]21 [Metergoline],100
5,CN1CCCC(CC2c3ccccc3Sc3ccccc32)C1.Cl.O (stereo not drawn) [Metixene hydrochloride hydrate],25
6,CCCCCCCCCCCCCCCCOP(=O)([O-])OCC[N+](C)(C)C [Miltefosine],100
7,CCCOc1ccc(S(=O)(=O)N2CCN(CCO)CC2)cc1-c1nc2c(CCC)cn(CC)c2c(=O)[nH]1.Cl.Cl [Mirodenafil (dihydrochloride)],100
8,NC(=O)Cc1cccc(C(=O)c2ccccc2)c1N [Nepafenac],100
9,COC(=O)C1=C(C#N)NC(C)=C(C(=O)OC(C)C)C1c1cccc([N+](=O)[O-])c1 (stereo not drawn) [Nilvadipine],100
10,COC(=O)c1ccc2c(c1)NC(=O)/C2=C(\Nc1ccc(N(C)C(=O)CN2CCN(C)CC2)cc1)c1ccccc1 [Nintedanib],100
11,CNCCC=C1c2ccccc2CCc2ccccc21.Cl [Nortriptyline (hydrochloride)],100
12,CCCCCCCCN=c1ccn(CCCCCCCCCCn2ccc(=NCCCCCCCC)cc2)cc1.Cl.Cl [Octenidine (dihydrochloride)],1.5625
13,C=CC(=O)Nc1cccc(Oc2nc(Nc3ccc(N4CCN(C)CC4)cc3)nc3ccsc23)c1 [Olmutinib],100
14,C=CC(=O)Nc1cc(Nc2nccc(-c3cn(C)c4ccccc34)n2)c(OC)cc1N(C)CCN(C)C.CS(=O)(=O)O.CS(=O)(=O)O [Osimertinib (dimesylate)],100
15,C=CC(=O)Nc1cc(Nc2nccc(-c3cn(C)c4ccccc34)n2)c(OC)cc1N(C)CCN(C)C.CS(=O)(=O)O [Osimertinib mesylate],50
16,C=CC(=O)Nc1cc(Nc2nccc(-c3cn(C)c4ccccc34)n2)c(OC)cc1N(C)CCN(C)C [Osimertinib],100
17,CCCCCCCCOc1ccccc1C(=O)Nc1ccc(C(=O)OCC[N+](C)(CC)CC)cc1.[Br-] [Otilonium (bromide)],6.25
18,O=C(O)CCc1nc(-c2ccccc2)c(-c2ccccc2)o1 [Oxaprozin],100
19,CN(C(=O)CN(CCO)CC(=O)N(C)C(C)(C)Cc1ccccc1)C(C)(C)Cc1ccccc1 [Oxethazaine],50
20,Cc1[nH]c2ccccc2c1CCNCc1ccc(/C=C/C(=O)NO)cc1 [Panobinostat],100
21,Cl.Fc1ccc([C@@H]2CCNC[C@H]2COc2ccc3c(c2)OCO3)cc1 [Paroxetine (hydrochloride)],50

row,Structure (SMILES),Synergistic lethal concentrations [µM]
1,C1CCC(C(CC2CCCCN2)C2CCCCC2)CC1 (stereo not drawn) [Perhexiline maleate],50
2,N#Cc1ccc2c(c1)N(CCCN1CCC(O)CC1)c1ccccc1S2 [Pericyazine],100
3,OCCN1CCN(CCCN2c3ccccc3Sc3ccc(Cl)cc32)CC1 [Perphenazine],25
4,CN1CCC(=C2c3ccccc3Sc3ccccc32)CC1 [Pimethixene maleate],12.5
5,Cc1cc(CC(C)CC(C)(C)C)n(O)c(=O)c1.NCCO (stereo not drawn) [Piroctone olamine],100
6,O=C([O-])C[C@H](O)C[C@H](O)/C=C/c1c(C2CC2)nc2ccccc2c1-c1ccc(F)cc1.O=C([O-])C[C@H](O)C[C@H](O)/C=C/c1c(C2CC2)nc2ccccc2c1-c1ccc(F)cc1.[Ca+2] [Pitavastatin (Calcium)],1.5625
7,CN1CCC(=C2c3ccccc3CCc3sccc32)CC1 [Pizotifen],100
8,Cc1ccc(C(=O)Nc2ccc(CN3CCN(C)CC3)c(C(F)(F)F)c2)cc1C#Cc1cnc2cccnn12 [Ponatinib],100
9,CO[C@]1(C(=O)N[C@@H](C)c2ccc(-n3cc(F)cn3)nc2)CC[C@H](c2nc(C)cc(Nc3cc(C)[nH]n3)n2)CC1 [Pralsetinib],100
10,CCCCOc1ccc(OCCCN2CCOCC2)cc1.Cl [Pramocaine (hydrochloride)],100
11,[H]/N=C(\N/C(=N/[H])Nc1ccc(Cl)cc1)NC(C)C [Proguanil],100
12,CNCCCC1c2ccccc2C=Cc2ccccc21.Cl [Protriptyline (hydrochloride)],100
13,O=C(O)/C=C/C(=O)O.OCCOCCN1CCN(C2=Nc3ccccc3Sc3ccccc32)CC1.OCCOCCN1CCN(C2=Nc3ccccc3Sc3ccccc32)CC1 [Quetiapine (hemifumarate)],100
14,OCCOCCN1CCN(C2=Nc3ccccc3Sc3ccccc32)CC1 [Quetiapine],100
15,CC(C)(C)c1cc(NC(=O)Nc2ccc(-c3cn4c(n3)sc3cc(OCCN5CCOCC5)ccc34)cc2)no1 [Quizartinib],6.25
16,COC(=O)[C@H]1[C@H]2C[C@@H]3c4[nH]c5cc(OC)ccc5c4CCN3C[C@H]2C[C@@H](OC(=O)c2cc(OC)c(OC)c(OC)c2)[C@@H]1OC.Cl [Reserpine (hydrochloride)],100
17,COC(=O)[C@H]1[C@H]2C[C@@H]3c4[nH]c5cc(OC)ccc5c4CCN3C[C@H]2C[C@@H](OC(=O)c2cc(OC)c(OC)c(OC)c2)[C@@H]1OC [Reserpine],50
18,C[C@@H](OC[C@@]1(c2ccccc2)CC[C@]2(CCC(=O)N2)CN1)c1cc(C(F)(F)F)cc(C(F)(F)F)c1 [Rolapitant],12.5
19,CC(C)c1nc(N(C)S(C)(=O)=O)nc(-c2ccc(F)cc2)c1/C=C/[C@@H](O)C[C@@H](O)CC(=O)[O-].CC(C)c1nc(N(C)S(C)(=O)=O)nc(-c2ccc(F)cc2)c1/C=C/[C@@H](O)C[C@@H](O)CC(=O)[O-].[Ca+2] [Rosuvastatin (Calcium)],50
20,OCc1cc(C(O)CNCCCCCCOCCCCc2ccccc2)ccc1O (stereo not drawn) [Salmeterol],100
21,CC(C)(C)NC(=O)[C@@H]1C[C@@H]2CCCC[C@@H]2CN1C[C@@H](O)[C@H](Cc1ccccc1)NC(=O)[C@H](CC(N)=O)NC(=O)c1ccc2ccccc2n1 [Saquinavir],50
